Square brackets hold non-standard residues; d marks the D form. Peptide text beside a SMILES is read from it. Nle = CCCC[C@H](N)C(=O)O
Legend:
calpain = experiment: Calpain inhibitor test: Fura-2 and EYFP fluorescence in primary cultures of cerebellum expressing F2C, potassium stimulation; format: cell-based, rat; conditions: ALLN 100 μM, ALLM 50 μM; for percentage of F535 EYFP maximum fluorescence change to Fura-2 maximum ratio change versus control free of calpain inhibitors: p>0.28; for percentage of F535 EYFP maximum fluorescence change to Fura-2 maximum ratio change (mean ± S.E.M.): preincubation 1 hr, potassium stimulation, n=10 cells
Experimental: (§1) The primary culture of cerebellum was incubated at 37° C., in 5% CO2 and 95% O2 atmosphere. The cells on a cover glass slip were infected with Sindbis-F2C 24 hrs before the incubation with Fura-2/AM (Molecular Probes, Eugene, Oregon, U.S.A.). This glass slip was transferred to a new dish filled with an external solution (ACSF, artificial cerebro-spinal fluid; 155 mM NaCl, 2.5 mM CaCl2, 1 mM MgCl2, 10 mM, HEPES, 17 mM glucose and 5 mM KOH and adjusted to pH 7.4). Fura-2/AM was added to a final concentration of 20 μM, and further incubated for 30 min at 37° C. Fura-2/AM (10 mM) stock was dissolved in DMSO. Cerebella cultures were transferred under the upright microscope equipped with a cooled CCD camera, and the image was prepared (ORCA-ER on Aquacosmos, Hamamatsu Photonics, Hamamatsu, Japan). For Fura-2 imaging, excitation light at wavelength 340 nm (10 nm band widths, 100% transmission) and excitation light at wavelength 380 nm (10 nm band widths, 100% transmission) were alternately applied, and fluorescence was captured at 510 nm and at longer wavelength. When F2C fluorescence was measured simultaneously, excitation light at 440 nm (10 nm band widths, 100% transmission) was applied and the fluorescence at a wavelength longer than 510 nm was captured. This fluorescence corresponds to EYFP. When FRET was measured from brain slice preparations or from cerebella cultures, neurons were excited at 440 nm (20 nm band width 60% transmission, XF1071 Omega Optical) with a dichroic mirror at 435 ram (XF2034 Omega Optical) and the fluorescence was monitored through 480 nm (30 nm bandwidth 75% transmission, XF3075 Omega Optical) for ECFP and 535 nm (25 nm bandwidth 70% transmission, XF3079 Omega Optical+50% ND filter) for EYFP.
To test the inhibition of calpain activities, calpain inhibitor-1 (ALLN, Calbiochem) and calpain inhibitor-2 (ALLM, Calbiochem) were adopted and Fura-2 fluorescence and EYFP fluorescence measurements were similarly conducted. The primary cultures of cerebellum were preincubated in ACSF containing ALLN (100 μM in DMSO), ALLM (50 μM in DMSO) or a combination of both for 1 hr. The same concentration of DMSO was added to ACSF as a control.

[1] = tested on: cochlear nucleus neurons in brain slices; experiment: FRET fluorescence ratio (ECFP/EYFP) in cochlear nucleus neurons of brain-stem slices after in vivo Sindbis injection, KCl stimulation; format: cell-based, rat
Experimental: Young Wistar rats (9-10 days old) were anesthetized with chloral hydrate (0.3 mg/g body weight). Then, the head of rat was fixed on a stereotaxis stage with a pair of ear bars and a nose clamp (SR-5N, Narishige, Tokyo, Japan). The head skin was sagittally incised and a small hole was made through the skull to expose the cerebellum. A micropipette was inserted through cerebellum, and a suspension of Sindbis virus encoding F2C protein (Sindbis-F2C) was injected (0.5-1 μl) into the brainstem by applying a mild positive pressure to the micropipette with the mouth. The incised part of the skin was then sutured and the rat was returned to the mother after recovery from anesthesia. […]
(§2) The primary culture of cerebellum was incubated at 37° C., in 5% CO2 and 95% O2 atmosphere. […] For Fura-2 imaging, excitation light at wavelength 340 nm (10 nm band widths, 100% transmission) and excitation light at wavelength 380 nm (10 nm band widths, 100% transmission) were alternately applied, and fluorescence was captured at 510 nm and at longer wavelength. When F2C fluorescence was measured simultaneously, excitation light at 440 nm (10 nm band widths, 100% transmission) was applied and the fluorescence at a wavelength longer than 510 nm was captured. This fluorescence corresponds to EYFP. […]

Ca^2+ = experiment: Simultaneous Fura-2 and F2C fluorescence measurement, Ca2+ titration and kinetics; format: cell-based, rat
Experimental: as §1
Rmax=2.38 and Rmin=0.58 were obtained by measurement from the Purkinje cell membrane loaded with Fura-2 perforated with 1 μM ionomycin, after equilibration with normal ACSF ([…]) for Rmax and equilibration with 0 mM CaCl2, 10 mM EGTA ACSF for Rmin. […]

[2] = tested on: cerebellar Purkinje cells; experiment: FRET fluorescence ratio (ECFP/EYFP) in cultured Purkinje cells expressing the indicator, KCl stimulation; format: cell-based, rat
Experimental: Purkinje cells were cultured in the same manner as reported previously (Weber, A. et al., Brain Res., 311, 119-130, 1984/Hirano, T. et al., Proc. Natl. Acad. Sci. U.S.A., 83, 1945-1949, 1986). In short, cerebella were dissected from Wistar rat fetus (about 20 days of fetal stage), and meninges were removed. The cerebella were incubated at 20° C. for 4 min in 1% trypsin (Invitrogen, California, U.S.A.)/0.05% DNase (Sigma, Missouri, U.S.A.) solution containing 137 mM NaCl, 5 mM KCl, 7 mM Na2PO4, and 25 mM HEPES (pH 7.2). After washing with Ca^2+- and Mg^2+-free Hanks' balanced salt solution (Invitrogen) three times, the tissue was dispersed by trituration with a fire polished Pasteur pipette in Ca^2+-free Hanks' balanced salt solution containing 0.05% DNase and 12 mM MgSO4. The cell suspension was centrifuged at 180×g at room temperature and the pelletized cells were resuspended at a concentration of 10^6 cells per 1 ml in a defined medium, which facilitates the survival of neurons (Weber, A. et al., Brain Res., 311, 119-130, 1984/Fischer, G. et al., Neurosci Lett, 28, 325-329, 1982). 2 ml of this cell suspension was plated on a Petri dish containing several heat-sterilized glass coverslips coated with 0.01% poly-L-lysin (Sigma). This cell culture was incubated at 37° C. in 5% CO2. The cells on the glass coverslips were used for infection with Sindbis virus. […]
as §2

μ-calpain = target: T1, μ-calpain (Homo sapiens, UniProt P07384); experiment: Western blotting for cleavage of the fusion protein by calpain; format: biochemical; conditions: incubated with purified μ-calpain in Ca-EGTA buffer (data not shown)
T1 construct: purchased Calbiochem
T1 sequence (P07384 1-714): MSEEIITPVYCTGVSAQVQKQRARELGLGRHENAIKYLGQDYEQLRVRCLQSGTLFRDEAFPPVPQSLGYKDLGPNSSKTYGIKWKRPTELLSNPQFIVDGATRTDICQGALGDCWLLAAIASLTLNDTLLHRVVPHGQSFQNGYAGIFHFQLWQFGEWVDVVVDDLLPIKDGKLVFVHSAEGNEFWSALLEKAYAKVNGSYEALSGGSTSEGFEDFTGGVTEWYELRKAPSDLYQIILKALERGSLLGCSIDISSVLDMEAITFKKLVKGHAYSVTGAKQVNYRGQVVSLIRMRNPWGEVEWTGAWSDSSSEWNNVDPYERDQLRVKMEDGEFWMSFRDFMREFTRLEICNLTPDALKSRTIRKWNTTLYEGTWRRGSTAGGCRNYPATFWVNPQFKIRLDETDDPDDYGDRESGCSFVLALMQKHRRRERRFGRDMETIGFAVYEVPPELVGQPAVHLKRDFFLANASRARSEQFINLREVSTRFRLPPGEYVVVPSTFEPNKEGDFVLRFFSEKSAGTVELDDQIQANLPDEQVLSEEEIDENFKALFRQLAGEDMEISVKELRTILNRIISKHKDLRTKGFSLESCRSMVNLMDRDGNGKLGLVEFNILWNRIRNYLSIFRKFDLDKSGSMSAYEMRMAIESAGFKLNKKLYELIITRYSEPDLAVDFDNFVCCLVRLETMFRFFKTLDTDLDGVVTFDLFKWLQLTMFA
T1 sequence (P04632 1-268 partner): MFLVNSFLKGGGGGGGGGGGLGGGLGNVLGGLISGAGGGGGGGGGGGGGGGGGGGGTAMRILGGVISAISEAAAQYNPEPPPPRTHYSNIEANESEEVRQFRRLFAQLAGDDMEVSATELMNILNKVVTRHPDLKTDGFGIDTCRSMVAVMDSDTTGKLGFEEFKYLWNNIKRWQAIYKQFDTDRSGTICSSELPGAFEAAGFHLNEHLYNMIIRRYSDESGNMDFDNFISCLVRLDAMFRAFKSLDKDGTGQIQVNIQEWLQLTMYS
Experimental: To obtain cell lysate, cells were pelletized and homogenized in EGTA buffer (10 mM EGTA-Na, 10 mM HEPES-K, 150 mM NaCl) or Ca-EGTA buffer (10 mM CaCl2, 10 mM EGTA-Na, 10 mM HEPES-K, 150 mM NaCl). The Ca^2+ concentration was finally adjusted to 20 μM. The cell lysates contained the protease inhibitor cocktail (Nacalai Tesque). The cell lysates were incubated at 30° C. for 30 min or 60 min. In some experiments, cell lysates were incubated with a purified μ-calpain (Calpain I, Calbiochem, California, U.S.A.) at 30° C. for 30 min or 60 min. These cell lysates were centrifuged at 20,000×g for 20 min and the supernatants were fractionated. The supernatants were loaded onto 10% SDS-PAGE gels. Western blotting was carried out according to the method of Towbin et al. (Towbin, H. et al., Proc. Natl. Acad. Sci. U.S.A., 76, 4350-4354, 1979), using mouse anti-GFP antibody for detecting F2C cleavage (dilution rate 1:1000, MBL, Nagoya, Japan) and anti-PKC α antibody (dilution rate 1:500, Upstate, N.Y., U.S.A.) to confirm calpain activity.

Kd (Ca^2+; titration of F2C, pH 7.4, read-out: apparent Kd value for Ca^2+) | fragmented protein signal in Western blot (cleavage by calpain) (μ-calpain) | Molecule | percentage of F535 EYFP maximum fluorescence change to Fura-2 maximum ratio change versus control free of calpain inhibitors (calpain) | percentage of F535 EYFP maximum fluorescence change to Fura-2 maximum ratio change (mean ± S.E.M.) (calpain) | time over which reversible changes of the ECFP/EYFP fluorescence ratio were observed ([1]; 10 mM KCl stimulation, cochlear nucleus neurons, FIG. 9) | change of FRET fluorescence ratio on exposure to high KCl solution ([1]; brainstem slices, 15 mM KCl applied 3 times) | speed of Ca^2+ response (20-80% rise time of F535) compared with Fura-2 (F340/F380) (Ca^2+; n=240 cells, various CaCl2 and KCl conditions) | Hill coefficient (Ca^2+; titration of F2C, pH 7.4) | ECFP/EYFP fluorescence ratio change ([2]; Purkinje cells 14DIV exposed to 7.5 mM KCl (basal 5 mM)) | ECFP/EYFP fluorescence ratio change ([2]; Purkinje cells 14DIV exposed to 10 mM KCl (basal 5 mM)) | ECFP/EYFP fluorescence ratio change ([2]; Purkinje cells 14DIV exposed to 15 mM KCl (basal 5 mM))
– | – | CSCC[C@@H](C=O)NC(=O)[C@H](CC(C)C)NC(=O)[C@H](CC(C)C)NC(C)=O [ALLM] (Ac-Leu-Leu-Met-aldehyde) | not different | 35.9 ± 1.4% | – | – | – | – | – | – | –
– | – | CCCC[C@@H](C=O)NC(=O)[C@H](CC(C)C)NC(=O)[C@H](CC(C)C)NC(C)=O [ALLN] (Ac-Leu-Leu-[Nle]-aldehyde) | not different | 37.1 ± 2.1% | – | – | – | – | – | – | –
150 nM | not detected | F2C: Fusion protein (SEQ ID NO:6): GAP43 palmitoylation signal, ECFP, two α-spectrin calpain sensitive sequences, EYFP | – | – | at least 200 min | changed reversibly | almost the same speed | 4 | 1.03 fold | 1.39 fold | 1.78 fold

— patent US7713713B2, “Polypeptide having intracellular calcium ion indicator function” (Kyoto University, priority 2005, dated 2010)
